Calls of active or inactive are those of the source.
Key:
[1] = growth suppression of beta-catenin-knockout colon cells, dose response, cell-based, HCT116, human colon tumor (AID 1045); type: functional;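 also: HCT116 colon tumor cells with beta catenin knocked out; cells exposed to compound for 60 hours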
[2] = growth suppression of PTEN-null colon cells, dose response, cell-based, HCT116 PTEN knockout (AID 1047); type: functional;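 also: HCT116 colon tumor cells with PTEN knocked out; cells exposed to compound for 60 hours before readout; potency for loss of cell viability measured by luminescence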
[3] = target: T1, High affinity choline transporter 1 (Homo sapiens, UniProt Q9GZV3); test: CHT inhibitors, dose response, cell-based, 5-point CRC, membrane potential dye (AID 504840); type: functional
T1 sequence (Q9GZV3 whole entry): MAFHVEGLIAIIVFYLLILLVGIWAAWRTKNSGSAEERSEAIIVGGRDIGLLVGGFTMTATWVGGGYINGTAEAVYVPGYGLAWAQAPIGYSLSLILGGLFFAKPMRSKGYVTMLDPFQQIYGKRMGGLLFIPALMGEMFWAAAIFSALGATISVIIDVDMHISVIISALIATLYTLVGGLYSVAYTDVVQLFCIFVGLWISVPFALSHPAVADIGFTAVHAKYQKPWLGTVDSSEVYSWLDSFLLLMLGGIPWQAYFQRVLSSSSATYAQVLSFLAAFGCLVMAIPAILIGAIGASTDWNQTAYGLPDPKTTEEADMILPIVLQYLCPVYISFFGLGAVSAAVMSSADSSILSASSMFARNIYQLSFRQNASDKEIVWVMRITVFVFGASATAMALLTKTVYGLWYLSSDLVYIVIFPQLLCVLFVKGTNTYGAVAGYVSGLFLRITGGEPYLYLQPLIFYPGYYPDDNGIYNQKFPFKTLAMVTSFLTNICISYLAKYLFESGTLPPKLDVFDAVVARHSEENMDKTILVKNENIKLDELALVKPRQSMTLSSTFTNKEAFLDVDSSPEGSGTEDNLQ

[4] = cells; type: functional, cell-based
[5] = cells; type: functional, cell-based; remark: listed apart in the source
[6] = target: T2, Heat shock factor protein 1 (Mus musculus, UniProt P38532); test: inhibition of MG132-induced HSE-luciferase signal, confirmation, cell-based, NIH3T3, luminescence, dose retest (AID 2382); type: functional;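 also: NIH3T3 fibroblasts with HSF1-driven luciferase reporter stressed by proteasome inhibitor MG132; luminescence from HSF1-driven luciferase expression after 8 hours of MG132 stress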
T2 sequence (P38532 whole entry): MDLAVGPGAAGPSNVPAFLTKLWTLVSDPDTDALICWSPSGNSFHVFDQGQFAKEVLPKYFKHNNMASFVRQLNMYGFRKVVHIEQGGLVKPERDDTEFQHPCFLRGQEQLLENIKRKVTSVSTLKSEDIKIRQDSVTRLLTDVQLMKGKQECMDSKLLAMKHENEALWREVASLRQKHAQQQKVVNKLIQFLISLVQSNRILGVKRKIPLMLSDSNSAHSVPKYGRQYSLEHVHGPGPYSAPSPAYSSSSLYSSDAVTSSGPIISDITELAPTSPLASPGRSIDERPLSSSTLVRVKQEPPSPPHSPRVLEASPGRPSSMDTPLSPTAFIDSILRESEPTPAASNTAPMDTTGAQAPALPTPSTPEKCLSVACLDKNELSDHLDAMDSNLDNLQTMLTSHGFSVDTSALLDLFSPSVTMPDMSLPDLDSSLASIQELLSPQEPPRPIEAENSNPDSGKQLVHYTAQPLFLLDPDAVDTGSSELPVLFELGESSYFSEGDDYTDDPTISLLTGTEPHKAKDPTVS

[7] = target: T3, Calpain-2 catalytic subunit (Sus scrofa, UniProt P43367); test: pig calpain II inhibitor potency, dose response, biochemical, fluorogenic peptide substrate (AID 1420); type: functional
T3 sequence (P43367 whole entry): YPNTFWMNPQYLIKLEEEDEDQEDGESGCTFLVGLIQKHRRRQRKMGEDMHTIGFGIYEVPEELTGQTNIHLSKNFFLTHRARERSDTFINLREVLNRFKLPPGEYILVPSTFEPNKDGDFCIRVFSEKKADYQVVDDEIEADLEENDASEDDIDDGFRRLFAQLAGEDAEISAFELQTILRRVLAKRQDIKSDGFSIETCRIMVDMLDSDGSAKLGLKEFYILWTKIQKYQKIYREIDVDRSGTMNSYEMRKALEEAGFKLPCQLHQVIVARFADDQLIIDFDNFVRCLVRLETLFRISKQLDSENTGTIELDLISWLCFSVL

[8] = target: Voltage-dependent T-type calcium channel subunit alpha-1H (Homo sapiens, UniProt O95180); type: functional;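 also: channel activity triggered by adding a high calcium stimulation buffer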
[9] = target: T4, Ubiquitin-conjugating enzyme E2 N (Homo sapiens, UniProt P61088); type: functional;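 also: Dose-response confirmation in a TR-FRET assay detecting UBC13-driven polyubiquitin chain formation, inhibition measured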
T4 sequence (P61088 whole entry): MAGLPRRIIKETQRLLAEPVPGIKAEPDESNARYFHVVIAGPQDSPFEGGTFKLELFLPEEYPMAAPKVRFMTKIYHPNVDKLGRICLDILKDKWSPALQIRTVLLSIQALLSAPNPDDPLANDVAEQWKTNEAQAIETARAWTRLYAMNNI

[10] = target: T5, Rac GTPase-activating protein 1 (Homo sapiens, UniProt Q9H0H5); test: MgcRacGAP GTPase-activating activity inhibitors, confirmation, biochemical, ADP Hunter fluorescence, primary and confirmatory (AID 624330); type: functional
T5 sequence (Q9H0H5 whole entry): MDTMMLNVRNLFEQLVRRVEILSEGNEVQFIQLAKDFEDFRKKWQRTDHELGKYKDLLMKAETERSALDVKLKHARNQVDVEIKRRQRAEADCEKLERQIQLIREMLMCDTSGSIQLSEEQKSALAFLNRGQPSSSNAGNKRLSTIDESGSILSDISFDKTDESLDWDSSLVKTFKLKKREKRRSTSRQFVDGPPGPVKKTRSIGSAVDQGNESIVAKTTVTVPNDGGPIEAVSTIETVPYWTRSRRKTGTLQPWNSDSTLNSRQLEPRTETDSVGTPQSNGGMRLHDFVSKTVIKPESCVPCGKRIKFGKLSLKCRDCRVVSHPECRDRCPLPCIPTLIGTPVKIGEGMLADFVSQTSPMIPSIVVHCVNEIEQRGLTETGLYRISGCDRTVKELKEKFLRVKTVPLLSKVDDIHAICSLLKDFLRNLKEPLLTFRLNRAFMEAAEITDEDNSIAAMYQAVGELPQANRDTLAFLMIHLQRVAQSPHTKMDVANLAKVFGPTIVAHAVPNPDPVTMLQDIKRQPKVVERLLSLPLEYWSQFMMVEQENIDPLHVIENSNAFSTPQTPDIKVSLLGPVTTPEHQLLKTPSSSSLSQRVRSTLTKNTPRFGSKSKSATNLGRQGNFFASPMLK

[11] = target: T6, Type-1 angiotensin II receptor (Homo sapiens, UniProt P30556); test: AT1 receptor antagonists, dose response, selectivity assay for APJ receptor antagonist project, cell-based, uHTS hits (AID 463214); type: functional;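 also: antagonist potency against angiotensin II stimulated AT1 response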
T6 sequence (P30556 whole entry): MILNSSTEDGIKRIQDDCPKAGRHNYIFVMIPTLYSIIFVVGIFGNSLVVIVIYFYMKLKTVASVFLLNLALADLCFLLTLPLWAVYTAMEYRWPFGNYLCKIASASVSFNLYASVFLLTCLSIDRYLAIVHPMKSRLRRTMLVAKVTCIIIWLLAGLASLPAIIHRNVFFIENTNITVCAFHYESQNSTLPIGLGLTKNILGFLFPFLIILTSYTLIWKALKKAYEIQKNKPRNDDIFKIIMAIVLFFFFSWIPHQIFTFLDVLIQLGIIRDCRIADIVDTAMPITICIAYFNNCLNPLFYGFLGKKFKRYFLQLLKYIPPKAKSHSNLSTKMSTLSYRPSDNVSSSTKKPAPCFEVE

[12] = target: Beta-galactosidase (Escherichia coli, UniProt Q8VNN2); test: PubChem AID 485352; type: functional
[13] = Luminescence Cell-Based Dose Retest to Confirm Inhibitors of Cancer Stem Cells. [Related pubchem assays (depositor defined):AID2717, AID2721]; type: functional; settings: Homo sapiens
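For AC50 in this document: cells exposed to compound for roughly 70 hours or longer before luminescence read.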

Sequence of Voltage-dependent T-type calcium channel subunit alpha-1H (O95180 whole entry): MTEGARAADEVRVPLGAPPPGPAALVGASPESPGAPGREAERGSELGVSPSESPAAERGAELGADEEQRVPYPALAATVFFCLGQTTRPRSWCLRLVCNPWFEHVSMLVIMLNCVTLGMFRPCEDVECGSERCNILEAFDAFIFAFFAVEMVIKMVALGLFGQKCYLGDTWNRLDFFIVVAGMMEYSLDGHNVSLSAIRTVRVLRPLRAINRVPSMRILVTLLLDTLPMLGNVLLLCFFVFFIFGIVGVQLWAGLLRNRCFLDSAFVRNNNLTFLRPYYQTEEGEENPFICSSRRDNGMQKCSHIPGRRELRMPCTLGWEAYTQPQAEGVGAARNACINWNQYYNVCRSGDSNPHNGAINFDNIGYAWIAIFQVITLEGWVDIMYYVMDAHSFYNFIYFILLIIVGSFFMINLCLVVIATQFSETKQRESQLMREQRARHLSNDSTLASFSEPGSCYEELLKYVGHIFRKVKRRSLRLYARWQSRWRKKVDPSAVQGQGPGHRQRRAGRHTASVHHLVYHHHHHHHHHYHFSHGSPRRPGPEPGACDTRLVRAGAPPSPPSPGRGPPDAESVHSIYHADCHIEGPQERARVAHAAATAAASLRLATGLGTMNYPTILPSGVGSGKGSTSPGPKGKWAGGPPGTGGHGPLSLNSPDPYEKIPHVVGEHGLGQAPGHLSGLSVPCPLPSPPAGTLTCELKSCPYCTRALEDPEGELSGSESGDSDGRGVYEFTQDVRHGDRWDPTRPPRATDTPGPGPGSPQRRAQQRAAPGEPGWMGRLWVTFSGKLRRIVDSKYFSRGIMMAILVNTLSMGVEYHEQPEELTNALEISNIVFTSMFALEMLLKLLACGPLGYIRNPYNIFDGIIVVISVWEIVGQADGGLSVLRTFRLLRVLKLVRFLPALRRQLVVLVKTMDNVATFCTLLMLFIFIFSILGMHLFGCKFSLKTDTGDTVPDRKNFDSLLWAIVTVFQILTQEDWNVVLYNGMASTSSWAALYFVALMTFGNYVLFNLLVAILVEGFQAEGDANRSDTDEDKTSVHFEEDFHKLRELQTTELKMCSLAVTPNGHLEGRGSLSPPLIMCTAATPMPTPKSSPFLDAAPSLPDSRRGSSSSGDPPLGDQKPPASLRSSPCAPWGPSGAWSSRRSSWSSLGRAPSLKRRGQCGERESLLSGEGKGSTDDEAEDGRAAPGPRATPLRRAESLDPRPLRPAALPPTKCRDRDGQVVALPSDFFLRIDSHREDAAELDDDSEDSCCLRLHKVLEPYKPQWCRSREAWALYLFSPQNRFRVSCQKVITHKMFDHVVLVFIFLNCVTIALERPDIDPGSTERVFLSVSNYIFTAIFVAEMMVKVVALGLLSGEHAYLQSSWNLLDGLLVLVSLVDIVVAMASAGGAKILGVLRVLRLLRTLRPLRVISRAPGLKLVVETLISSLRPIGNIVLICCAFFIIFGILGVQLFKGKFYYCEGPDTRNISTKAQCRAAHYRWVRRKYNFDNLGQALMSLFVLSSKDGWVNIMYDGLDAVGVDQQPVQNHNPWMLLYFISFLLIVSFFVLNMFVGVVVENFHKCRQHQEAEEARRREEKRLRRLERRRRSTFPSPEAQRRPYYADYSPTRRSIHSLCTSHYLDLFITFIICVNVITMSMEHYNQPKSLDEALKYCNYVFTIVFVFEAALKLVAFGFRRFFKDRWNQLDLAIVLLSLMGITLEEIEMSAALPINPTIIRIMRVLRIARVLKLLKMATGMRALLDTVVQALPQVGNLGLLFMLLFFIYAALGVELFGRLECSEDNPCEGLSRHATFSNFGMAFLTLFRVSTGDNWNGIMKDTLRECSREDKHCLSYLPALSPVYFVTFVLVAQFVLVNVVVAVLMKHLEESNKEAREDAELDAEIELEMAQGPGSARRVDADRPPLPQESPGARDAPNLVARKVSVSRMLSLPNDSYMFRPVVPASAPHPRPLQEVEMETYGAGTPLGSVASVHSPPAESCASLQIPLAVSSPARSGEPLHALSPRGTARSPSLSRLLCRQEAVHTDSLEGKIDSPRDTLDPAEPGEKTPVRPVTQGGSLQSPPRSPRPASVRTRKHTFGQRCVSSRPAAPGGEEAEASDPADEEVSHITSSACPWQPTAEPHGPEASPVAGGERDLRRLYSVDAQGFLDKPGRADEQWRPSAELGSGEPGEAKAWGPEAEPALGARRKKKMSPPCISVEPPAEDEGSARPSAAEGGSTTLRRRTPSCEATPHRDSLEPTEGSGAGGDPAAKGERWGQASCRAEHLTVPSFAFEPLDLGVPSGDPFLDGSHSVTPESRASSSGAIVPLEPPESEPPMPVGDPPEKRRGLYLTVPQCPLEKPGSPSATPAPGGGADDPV
Sequence of Beta-galactosidase (Q8VNN2 whole entry): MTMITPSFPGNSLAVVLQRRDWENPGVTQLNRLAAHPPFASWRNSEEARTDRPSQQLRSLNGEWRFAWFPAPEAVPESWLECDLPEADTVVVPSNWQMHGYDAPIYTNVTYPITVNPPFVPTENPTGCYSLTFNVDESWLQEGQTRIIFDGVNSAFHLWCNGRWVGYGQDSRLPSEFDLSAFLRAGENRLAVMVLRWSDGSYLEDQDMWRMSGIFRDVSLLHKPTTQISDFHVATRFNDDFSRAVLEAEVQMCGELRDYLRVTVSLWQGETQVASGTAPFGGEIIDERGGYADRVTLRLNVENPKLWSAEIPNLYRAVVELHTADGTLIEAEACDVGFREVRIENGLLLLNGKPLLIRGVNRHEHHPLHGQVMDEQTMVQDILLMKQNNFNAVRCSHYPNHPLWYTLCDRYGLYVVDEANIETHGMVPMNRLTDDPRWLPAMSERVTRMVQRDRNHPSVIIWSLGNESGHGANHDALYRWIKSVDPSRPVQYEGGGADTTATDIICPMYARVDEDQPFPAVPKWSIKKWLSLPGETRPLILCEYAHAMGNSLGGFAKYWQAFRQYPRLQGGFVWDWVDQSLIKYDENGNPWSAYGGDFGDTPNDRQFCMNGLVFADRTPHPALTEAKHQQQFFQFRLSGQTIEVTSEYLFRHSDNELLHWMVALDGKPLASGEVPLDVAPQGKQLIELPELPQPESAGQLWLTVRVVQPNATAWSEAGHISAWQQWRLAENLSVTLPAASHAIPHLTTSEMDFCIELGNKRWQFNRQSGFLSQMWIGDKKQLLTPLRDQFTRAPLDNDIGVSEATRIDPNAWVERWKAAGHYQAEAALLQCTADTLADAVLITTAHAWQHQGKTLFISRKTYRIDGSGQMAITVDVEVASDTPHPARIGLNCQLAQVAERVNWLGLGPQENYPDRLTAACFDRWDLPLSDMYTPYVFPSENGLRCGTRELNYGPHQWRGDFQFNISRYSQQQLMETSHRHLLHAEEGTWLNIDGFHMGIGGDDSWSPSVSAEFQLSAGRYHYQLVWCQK

COc1ccc(-c2csc3nc(-c4cccnc4)nc(Cl)c23)cc1OC
EC50 [1]: 10.4 µM (active)
EC50 [2]: 11.5 µM (active)

CC(C)c1nc(C(=O)N2CCCC(N3CCN(c4cccc(Cl)c4)CC3)C2)cs1 (stereo not drawn)
IC50 [3]: 13.2 µM (active)

CCCN=C(S)N1CCCC(c2nc3ccccc3[nH]2)C1 (stereo not drawn)
EC50 [4]: > 350 µM (not active)
EC50 [5]: > 350 µM (not active)
EC50 [6]: > 195 µM (not active)

O=C(CSc1c[nH]c2ccccc12)NCc1ccc2c(c1)OCO2
EC50 [4]: > 350 µM (not active)
EC50 [5]: > 350 µM (not active)

Cc1cc(NC(=O)COC(=O)C(Nc2ccc(C(F)(F)F)cc2Cl)C(C)C)no1 (stereo not drawn)
IC50 [7]: 9.49 µM (not active)
EC50 [8]: 3.96 µM (active)

CCCCn1nc2cc(C(=O)NCCc3cccs3)ccc2c1OCC
IC50 [3]: 11.8 µM (active)

CCN(CC)S(=O)(=O)c1ccc(NC(=O)CCC2CCCCC2)cc1
EC50 [8]: 10.3 µM (active)

COc1ccc(CCN(C)C(=O)c2ccc(COc3ccccc3)o2)cc1OC
IC50 [9]: > 20 µM (inactive)
IC50 [3]: 13.8 µM (active)

CCN1CCN(c2ccc(NC(=O)c3ccc4c(c3)nc(O)n4Cc3ccc(OC)cc3)cc2)CC1
EC50 [1]: 32.2 µM (active)
EC50 [2]: 34.2 µM (active)

Cc1ccc(NC(=O)CCC(=O)N/N=C/c2ccc(O)cc2O)cc1
EC50 [4]: > 350 µM (not active)
IC50 [10]: 56.6 µM (active)
EC50 [5]: > 350 µM (not active)

COc1ccc(N2CCN(S(=O)(=O)c3cc(-c4cc(C)no4)ccc3C(C)C)CC2)cc1
EC50 [4]: > 350 µM (not active)
EC50 [5]: > 350 µM (not active)

Cc1ccccc1N=C(S)NNc1ncc(C(F)(F)F)cc1Cl
IC50 [11]: 39.3 µM (not active)
EC50 [12]: > 40 µM (inactive)

CCCOc1cccc(C2C(C(=O)c3ccco3)=C(O)C(=O)N2CCCn2ccnc2)c1 (stereo not drawn)
EC50 [4]: > 350 µM (not active)
EC50 [5]: > 350 µM (not active)

CCOC(=O)c1cccc(NC(=O)CSc2nnc(C)n2Cc2ccccc2)c1
IC50 [3]: 0.794 µM (active)

Cc1nc(-c2ccccc2)sc1-c1nc(-c2cccnc2)ncc1S(=O)(=O)c1ccccc1
EC50 [8]: 8.73 µM (active)

Cn1c(=O)cc(C(=O)N/N=C/c2ccc(F)cc2)[nH]c1=O
EC50 [4]: > 350 µM (not active)
EC50 [5]: > 350 µM (not active)

N=c1c2c(ncn1Cc1ccco1)Oc1c(ccc3ccccc13)C2c1ccccc1 (stereo not drawn)
AC50 [13]: 2.25 µM (active)
EC50 [1]: 5.92 µM (active)
EC50 [2]: 5.53 µM (active)

COc1cccc(CNC(=O)CSCc2cnn(-c3ccccc3)c2-n2cccc2)c1OC
EC50 [8]: 3.32 µM (active)

Reference: ChEMBL document CHEMBL1201862, “PubChem BioAssay data set” (2004)
